Assay results: ChEMBL document CHEMBL5665443, “Enzyme Inhibitor Single Concentration assay results for EUbOPEN Chemogenomics Library” (2024)

Tests used:
[1] = biological target: Uracil-DNA glycosylase (Homo sapiens) (UniProt P13051); details: Hit No;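 note: UNG excision on a quenched double-stranded DNA oligo probe, with APE1 added for strand incision and turnover, read as fluorescence at 594 nm as strands separate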
Description: Inhibition of UNG by quantifying inhibition of UNG-mediated cleavage and dissociation of quenched duplex DNA oligonucleotides, measured as fluorescence at 594 nm. To generate a functional strand incision and increase turn-over this assay is coupled to APE1.

[2] = biological target: Methyl-CpG-binding domain protein 4 (Homo sapiens) (UniProt O95243); details: Hit No;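 note: MBD4 activity read as fluorescence at 594 nm from cleavage and release of a quenched duplex DNA oligonucleotide, with APE1 coupled to incise the strand and raise turnover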
Chain of Methyl-CpG-binding domain protein 4 (Homo sapiens) (O95243 whole entry, the tested form may be a part): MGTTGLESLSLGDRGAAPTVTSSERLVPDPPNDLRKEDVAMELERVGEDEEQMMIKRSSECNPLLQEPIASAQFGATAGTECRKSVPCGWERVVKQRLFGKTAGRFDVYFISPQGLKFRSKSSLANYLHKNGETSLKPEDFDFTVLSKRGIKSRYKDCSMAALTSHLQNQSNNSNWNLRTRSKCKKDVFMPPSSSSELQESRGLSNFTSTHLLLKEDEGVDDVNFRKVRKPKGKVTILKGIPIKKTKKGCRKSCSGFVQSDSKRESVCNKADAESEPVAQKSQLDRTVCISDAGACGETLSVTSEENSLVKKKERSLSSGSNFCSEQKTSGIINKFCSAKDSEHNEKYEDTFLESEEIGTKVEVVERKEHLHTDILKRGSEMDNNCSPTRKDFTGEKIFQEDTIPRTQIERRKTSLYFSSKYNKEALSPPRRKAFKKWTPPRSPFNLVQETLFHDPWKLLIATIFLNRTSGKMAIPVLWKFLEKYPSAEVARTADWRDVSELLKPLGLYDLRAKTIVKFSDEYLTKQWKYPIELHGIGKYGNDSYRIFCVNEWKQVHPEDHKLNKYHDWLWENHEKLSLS
Description: Inhibition of MBD4 by quantifying inhibition of MBD4-mediated cleavage and dissociation of quenched duplex DNA oligonucleotides, measured as fluorescence at 594 nm. To generate a functional strand incision and increase turn-over this assay is coupled to APE1.

[3] = biological target: T1, Single-strand selective monofunctional uracil DNA glycosylase (Homo sapiens) (UniProt Q53HV7); details: Hit No;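 note: enzymatic SMUG1 assay coupled with APE1, reading fluorescence at 594 nm released when a quenched double-stranded DNA oligonucleotide substrate is cleaved and separated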
T1 sequence (whole entry): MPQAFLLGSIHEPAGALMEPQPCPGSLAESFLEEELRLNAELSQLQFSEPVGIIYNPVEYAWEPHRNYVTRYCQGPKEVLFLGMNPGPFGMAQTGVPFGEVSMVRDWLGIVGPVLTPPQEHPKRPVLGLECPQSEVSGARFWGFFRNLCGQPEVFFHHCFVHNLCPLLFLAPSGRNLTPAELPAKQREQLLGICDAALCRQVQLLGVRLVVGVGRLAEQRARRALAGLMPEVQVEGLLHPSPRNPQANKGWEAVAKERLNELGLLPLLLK
Description: Inhibition of SMUG1 by quantifying inhibition of SMUG1-mediated cleavage and dissociation of quenched duplex DNA oligonucleotides, measured as fluorescence at 594 nm. To generate a functional strand incision and increase turn-over this assay is coupled to APE1.

[4] = biological target: G/T mismatch-specific thymine DNA glycosylase (Homo sapiens) (UniProt Q13569); details: Hit No;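 note: human TDG cleavage of quenched duplex DNA oligonucleotides coupled to APE1, strand release read as fluorescence at 594 nm, inhibition of TDG activity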
Chain of G/T mismatch-specific thymine DNA glycosylase (Homo sapiens) (Q13569 whole entry): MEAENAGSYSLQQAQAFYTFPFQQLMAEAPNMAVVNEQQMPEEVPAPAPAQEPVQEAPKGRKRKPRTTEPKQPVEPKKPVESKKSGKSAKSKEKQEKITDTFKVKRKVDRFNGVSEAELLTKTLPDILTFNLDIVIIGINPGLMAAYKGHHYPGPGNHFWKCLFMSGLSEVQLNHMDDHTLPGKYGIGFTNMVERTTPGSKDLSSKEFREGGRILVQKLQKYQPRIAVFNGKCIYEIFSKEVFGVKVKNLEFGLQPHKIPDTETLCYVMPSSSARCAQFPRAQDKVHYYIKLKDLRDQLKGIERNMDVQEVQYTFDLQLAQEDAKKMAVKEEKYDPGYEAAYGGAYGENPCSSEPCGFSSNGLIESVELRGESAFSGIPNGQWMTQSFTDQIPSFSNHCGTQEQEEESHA
Description: Inhibition of TDG by quantifying inhibition of TDG-mediated cleavage and dissociation of quenched duplex DNA oligonucleotides, measured as fluorescence at 594 nm. To generate a functional strand incision and increase turn-over this assay is coupled to APE1.

[5] = biological target: Endonuclease 8-like 1 (Homo sapiens) (UniProt Q96FI4); details: Hit No;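 note: fluorescence at 594 nm from quenched duplex DNA oligonucleotides released by NEIL1 cleavage and strand separation, reported as reduction of this enzyme activity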
Chain of Endonuclease 8-like 1 (Homo sapiens) (Q96FI4 whole entry): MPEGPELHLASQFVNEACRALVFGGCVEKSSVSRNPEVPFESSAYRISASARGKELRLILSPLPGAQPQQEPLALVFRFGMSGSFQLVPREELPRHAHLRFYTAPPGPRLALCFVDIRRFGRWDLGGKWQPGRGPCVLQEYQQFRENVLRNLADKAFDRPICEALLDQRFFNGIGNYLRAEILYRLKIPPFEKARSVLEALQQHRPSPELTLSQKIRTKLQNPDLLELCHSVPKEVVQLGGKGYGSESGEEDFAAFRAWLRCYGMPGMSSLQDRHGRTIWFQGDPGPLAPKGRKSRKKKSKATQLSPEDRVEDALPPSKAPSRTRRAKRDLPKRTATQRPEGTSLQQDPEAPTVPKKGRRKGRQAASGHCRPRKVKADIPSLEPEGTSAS
Description: Inhibition of NEIL1 by quantifying inhibition of NEIL1-mediated cleavage and dissociation of quenched duplex DNA oligonucleotides, measured as fluorescence at 594 nm.

[6] = biological target: T2, Endonuclease III-like protein 1 (Homo sapiens) (UniProt P78549); details: Hit No;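 note: enzyme assay tracking NTHL1 cutting and release of a quenched double-stranded DNA oligo substrate, read as fluorescence at 594 nm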
T2 sequence (whole entry): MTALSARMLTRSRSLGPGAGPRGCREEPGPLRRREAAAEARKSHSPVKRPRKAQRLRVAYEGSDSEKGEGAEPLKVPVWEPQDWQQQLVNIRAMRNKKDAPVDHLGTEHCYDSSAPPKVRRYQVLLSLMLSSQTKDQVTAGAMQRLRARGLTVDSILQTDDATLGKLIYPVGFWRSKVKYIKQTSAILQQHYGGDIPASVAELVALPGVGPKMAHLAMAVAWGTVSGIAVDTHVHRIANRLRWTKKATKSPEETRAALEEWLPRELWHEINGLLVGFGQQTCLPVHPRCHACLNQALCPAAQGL
Description: Inhibition of NTHL1 by quantifying inhibition of NTHL1-mediated cleavage and dissociation of quenched duplex DNA oligonucleotides, measured as fluorescence at 594 nm.

[7] = biological target: T3, Adenine DNA glycosylase (Homo sapiens) (UniProt Q9UIF7); details: Hit No;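 note: human MUTYH activity read as 594 nm fluorescence from cleavage and release of a quenched DNA duplex, coupled with APE1 for strand incision, lower signal meaning inhibition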
T3 sequence (whole entry): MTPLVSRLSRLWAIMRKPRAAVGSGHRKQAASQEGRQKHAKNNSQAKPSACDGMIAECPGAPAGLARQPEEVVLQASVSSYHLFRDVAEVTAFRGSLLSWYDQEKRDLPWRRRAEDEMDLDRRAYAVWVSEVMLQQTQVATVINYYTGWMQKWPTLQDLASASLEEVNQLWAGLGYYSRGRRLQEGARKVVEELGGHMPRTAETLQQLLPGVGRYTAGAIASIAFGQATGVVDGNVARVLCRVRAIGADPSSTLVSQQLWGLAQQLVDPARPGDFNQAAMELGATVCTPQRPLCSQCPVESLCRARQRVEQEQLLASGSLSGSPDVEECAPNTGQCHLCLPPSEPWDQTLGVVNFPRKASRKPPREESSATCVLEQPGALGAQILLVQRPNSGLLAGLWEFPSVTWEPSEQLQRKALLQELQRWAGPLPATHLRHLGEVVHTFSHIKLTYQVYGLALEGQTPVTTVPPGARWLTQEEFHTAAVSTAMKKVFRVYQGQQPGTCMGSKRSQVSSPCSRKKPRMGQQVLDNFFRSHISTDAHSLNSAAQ
Description: Inhibition of MUTYH by quantifying inhibition of MUTYH-mediated cleavage and dissociation of quenched duplex DNA oligonucleotides, measured as fluorescence at 594 nm. To generate a functional strand incision and increase turn-over this assay is coupled to APE1.

[8] = biological target: T4, Endonuclease 8-like 2 (Homo sapiens) (UniProt Q969S2); details: Hit No;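 note: fluorescence at 594 nm reports NEIL2 cutting and release of a quenched double-stranded DNA oligo substrate, reduced signal read as inhibition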
T4 sequence (whole entry): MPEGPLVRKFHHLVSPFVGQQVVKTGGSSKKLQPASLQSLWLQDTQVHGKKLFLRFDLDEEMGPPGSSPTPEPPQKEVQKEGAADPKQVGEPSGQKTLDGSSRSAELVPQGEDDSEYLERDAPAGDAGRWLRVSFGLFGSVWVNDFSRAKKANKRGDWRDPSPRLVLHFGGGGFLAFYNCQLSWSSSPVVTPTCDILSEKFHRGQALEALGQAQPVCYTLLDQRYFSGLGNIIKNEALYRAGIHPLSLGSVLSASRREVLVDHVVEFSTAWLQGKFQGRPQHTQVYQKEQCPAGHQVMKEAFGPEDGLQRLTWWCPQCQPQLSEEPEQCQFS
Description: Inhibition of NEIL2 by quantifying inhibition of NEIL2-mediated cleavage and dissociation of quenched duplex DNA oligonucleotides, measured as fluorescence at 594 nm.

[9] = biological target: N-glycosylase/DNA lyase (Homo sapiens) (UniProt O15527); details: Compound Concentration 10.0 uM, Hit No;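 note: OGG1 cleavage of a quenched duplex DNA oligonucleotide, coupled to APE1 for strand incision, read as fluorescence at 594 nm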
Chain of N-glycosylase/DNA lyase (Homo sapiens) (O15527 whole entry): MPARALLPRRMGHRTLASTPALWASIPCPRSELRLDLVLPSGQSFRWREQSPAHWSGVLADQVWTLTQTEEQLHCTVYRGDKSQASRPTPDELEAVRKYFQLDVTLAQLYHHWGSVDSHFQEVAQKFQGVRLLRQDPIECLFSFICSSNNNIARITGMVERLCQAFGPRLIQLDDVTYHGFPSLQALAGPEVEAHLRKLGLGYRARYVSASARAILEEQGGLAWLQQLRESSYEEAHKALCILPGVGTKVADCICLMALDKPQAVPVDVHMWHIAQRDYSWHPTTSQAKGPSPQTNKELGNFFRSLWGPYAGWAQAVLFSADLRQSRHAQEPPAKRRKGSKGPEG
Description: Inhibition of OGG1 by quantifying inhibition of OGG1-mediated cleavage and dissociation of quenched duplex DNA oligonucleotides, measured as fluorescence at 594 nm. To generate a functional strand incision and increase turn-over this assay is coupled to APE1.

Chain of Uracil-DNA glycosylase (Homo sapiens) (P13051 whole entry, the tested form may be a part): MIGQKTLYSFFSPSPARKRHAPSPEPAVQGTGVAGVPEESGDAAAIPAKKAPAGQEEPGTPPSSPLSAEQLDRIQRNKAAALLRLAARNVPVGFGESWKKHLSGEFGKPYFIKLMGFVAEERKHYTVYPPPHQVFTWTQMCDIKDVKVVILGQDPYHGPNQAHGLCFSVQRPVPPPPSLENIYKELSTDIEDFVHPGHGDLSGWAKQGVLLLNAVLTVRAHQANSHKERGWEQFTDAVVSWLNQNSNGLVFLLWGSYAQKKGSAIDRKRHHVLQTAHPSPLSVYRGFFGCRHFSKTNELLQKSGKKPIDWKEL

Compound	inhibition ([1]; Compound Concentration 10.0 uM) [%]	inhibition ([2]; Compound Concentration 10.0 uM) [%]	inhibition ([3]; Compound Concentration 10.0 uM) [%]	inhibition ([4]; Compound Concentration 10.0 uM) [%]	inhibition ([5]; Compound Concentration 10.0 uM) [%]	inhibition ([6]; Compound Concentration 10.0 uM) [%]	inhibition ([7]; Compound Concentration 10.0 uM) [%]	inhibition ([1]; Compound Concentration 1.0 uM) [%]	inhibition ([3]; Compound Concentration 1.0 uM) [%]	inhibition ([4]; Compound Concentration 1.0 uM) [%]	inhibition ([8]; Compound Concentration 10.0 uM) [%]	inhibition ([6]; Compound Concentration 1.0 uM) [%]	inhibition ([7]; Compound Concentration 1.0 uM) [%]	inhibition ([2]; Compound Concentration 1.0 uM) [%]	inhibition ([8]; Compound Concentration 1.0 uM) [%]	inhibition ([5]; Compound Concentration 1.0 uM) [%]	inhibition [9] [%]
O=C1c2cccc3c2[C@H](CCC3)CN1[C@@H]1CN2CCC1CC2	-7.93	0.552	-4.7	0.841	-2.96	3.04	-5.22										
Cc1nc(N2CC[C@@H](O)C2)ncc1-c1cc(C(F)(F)F)cc2[nH]ncc12	-1.48	58.5	10.3	48		-5.89	-2.45										
Cc1cc(NC(=O)c2cccc(S(F)(F)(F)(F)F)c2)cc(-n2ccn3nc(-c4cccnc4)cc23)c1	0.948	4.59	3.64	17.7		7.92		1.8	19.3	54.6	-7.89	-2	16				
N[C@@]1(C(=O)O)CO[C@H]2[C@H](C(=O)O)[C@H]21	-8.59	10.3	2.42	9.39	-2.51	24.5	10.7				-7.74						
Cc1cccc(CCN2CCC(C(=O)c3ccc(NS(C)(=O)=O)cc3)CC2)n1	-5.19	-1.99	-8.55	11.1	0.158	0.568	-5.27				-4.17						
Cc1cc(F)c(C(=O)Nc2cccc(-c3nncn3C(C)C)n2)cc1-n1cnc(C2CC2)c1								-0.67	12.2	44.4		-4.79	8.56	18.6	2.93	8.59	
COc1ccccc1S(=O)(=O)Nc1ccc(C)cc1Oc1ccc2c(N)nccc2c1	-1.95	10.2		9.87	11	17.1	3.09				7.55						-5.28
CC(C)(C)c1cc(NC(=O)Nc2ccc(-c3cn4c(n3)sc3cc(OCCN5CCOCC5)ccc34)cc2)no1								1.47	19.8	37.3		-3.4	11.2	0.784	1.85	5.55	
COc1ccc(NC(=O)[C@@H]2C[C@H](C)CC[C@H]2C(C)C)cc1	-3.01	1.36	11.3	-1.07	-2.36	15.4	-7.01				-3.15						
C[C@@H](Oc1cc(-n2cnc3ccc(CN4CCN(C)CC4)cc32)sc1C(N)=O)c1ccccc1C(F)(F)F								5.21	26.8	50		-6.19	6.26	15.4		-0.655	
H-LVVYPWT-OH	-2.47	9.67		8.08	7.27	14.6	8.4				2.2						-2.03
Cn1cc(-n2cnc3c(NCc4nc5cc(Cl)c(Cl)cc5[nH]4)nc(N4CCOCC4)nc32)cn1	3.73	6.19	25.7	40.7	6.21	-7.58	9.84				1.04						
CN(C)CCOc1ccc(-c2nc(-c3ccncc3)c(-c3ccc4c(c3)CC/C4=N\O)[nH]2)cc1	11.4	23.9	-6.49	47.4	1.19	11.2	0.369				26.4						
Cc1ccccc1N1CCN(CCc2nnc3n2CCCC3)CC1		-9.49	-1.58	4.82	0.834	-6.14	7.44				-1.98						
CNc1ncc2cc(-c3ccc(-c4ncccc4F)cc3Cl)c(=O)n(C[C@H]3OC[C@H](N)CO3)c2n1	9.96	9.96	24.9	48.4	0.666	-2	10.6				-5.96						
COc1cc(-c2cn([C@H]3CCc4ccccc4N(CC(F)(F)F)C3=O)nn2)ccc1-n1ccc(C)n1	8.95	-5.88	8.81	24.5		-9.83	-8.57				12.5						
CC(C)C(=O)Nc1n[nH]c2cc(-c3cccc(NS(=O)(=O)C4CC4)c3)ccc12	-0.0214	-3.9	13.9	40.3	4.76	-0.61	2.74				0.236						
Cc1c[nH]c2nccc(Oc3c(F)cc(Nc4cc(Cl)nc(N)n4)cc3F)c12								4.99	20.7	54.4		-0.432	11.7	43.9	3.69		
Clc1ccc(OC[C@H]2CCN2)cn1	-3.96	-2.21			-0.584	5.52	-6.13				-6.72						-5.75
